Measured values as given in patent US8791108B2, “Inhibitors of human immunodeficiency virus replication” (priority 2011, dated 2014).
Where two headings read alike, the source gives them in different places.

Test system: recombinant NL-Rluc virus
Assay: Inhibition of HIV replication (NL-RLuc luciferase reporter virus, MT-2 cells)
Assay type: cell-based
Settings: Human immunodeficiency virus 1, MT2, 120 h

Row | SMILES | EC50 (read-out: Activity) | EC50 (read-out: EC50 μM)
1 | Cc1nc2cc(C(=O)NCCOC(C)C)nn2c(-c2cc(F)c3c(c2C)CCCO3)c1[C@H](OC(C)(C)C)C(=O)O [Example 102, (2S)-2-(tert-butoxy)-2-(7-(8-fluoro-5-methylchroman-6-yl)-2-((2-isopropoxyethyl)carbamoyl)-5-methylpyrazolo[1,5-a]pyrimidin-6-yl)acetic acid] | < 0.1 µM | 
2 | Cc1nc2cc(C(=O)NCCOC(C)(C)C)nn2c(-c2cc(F)c3c(c2C)CCCO3)c1[C@H](OC(C)(C)C)C(=O)O [Example 103, (2S)-2-(tert-butoxy)-2-(2-((2-(tert-butoxy)ethyl)carbamoyl)-7-(8-fluoro-5-methylchroman-6-yl)-5-methylpyrazolo[1,5-a]pyrimidin-6-yl)acetic acid] | 0.1 to 1 µM | 0.073 µM
3 | Cc1nc2cc(C(=O)NCc3ccccn3)nn2c(-c2cc(F)c3c(c2C)CCCO3)c1[C@H](OC(C)(C)C)C(=O)O [Example 104, (2S)-2-(tert-butoxy)-2-(7-(8-fluoro-5-methylchroman-6-yl)-5-methyl-2-((pyridin-2-ylmethyl)carbamoyl)pyrazolo[1,5-a]pyrimidin-6-yl)acetic acid] | > 1 µM | 
4 | Cc1nc2cc(C(=O)N3CCC(Cc4ccccc4)CC3)nn2c(-c2cc(F)c3c(c2C)CCCO3)c1[C@H](OC(C)(C)C)C(=O)O [Example 105, (2S)-2-(2-(4-benzylpiperidine-1-carbonyl)-7-(8-fluoro-5-methylchroman-6-yl)-5-methylpyrazolo[1,5-a]pyrimidin-6-yl)-2-(tert-butoxy)acetic acid] | < 0.1 µM | 
5 | Cc1nc2cc(C(=O)N3CCC(CCO)CC3)nn2c(-c2cc(F)c3c(c2C)CCCO3)c1[C@H](OC(C)(C)C)C(=O)O [Example 106, (2S)-2-(tert-butoxy)-2-(7-(8-fluoro-5-methylchroman-6-yl)-2-(4-(2-hydroxyethyl)piperidine-1-carbonyl)-5-methylpyrazolo[1,5-a]pyrimidin-6-yl)acetic acid] | > 1 µM | 
6 | Cc1nc2cc(C(=O)NCCCN3CCOCC3)nn2c(-c2cc(F)c3c(c2C)CCCO3)c1[C@H](OC(C)(C)C)C(=O)O [Example 107] | > 1 µM | 
7 | Cc1nc2cc(C(=O)NCc3ccc(Cl)cc3Cl)nn2c(-c2cc(F)c3c(c2C)CCCO3)c1[C@H](OC(C)(C)C)C(=O)O [Example 108, (2S)-2-(tert-butoxy)-2-(2-((2,4-dichlorobenzyl)carbamoyl)-7-(8-fluoro-5-methylchroman-6-yl)-5-methylpyrazolo[1,5-a]pyrimidin-6-yl)acetic acid] | < 0.1 µM | 0.013 µM
8 | Cc1nc2cc(C(=O)NCc3ccc(Cl)c(Cl)c3)nn2c(-c2cc(F)c3c(c2C)CCCO3)c1[C@H](OC(C)(C)C)C(=O)O [Example 109, (2S)-2-(tert-butoxy)-2-(2-((3,4-dichlorobenzyl)carbamoyl)-7-(8-fluoro-5-methylchroman-6-yl)-5-methylpyrazolo[1,5-a]pyrimidin-6-yl)acetic acid] | < 0.1 µM | 
9 | COc1ccc(CNC(=O)c2cc3nc(C)c([C@H](OC(C)(C)C)C(=O)O)c(-c4cc(F)c5c(c4C)CCCO5)n3n2)cc1 [Example 110, (2S)-2-(tert-butoxy)-2-(7-(8-fluoro-5-methylchroman-6-yl)-2-((4-methoxybenzyl)carbamoyl)-5-methylpyrazolo[1,5-a]pyrimidin-6-yl)acetic acid] | < 0.1 µM | 
10 | Cc1nc2cc(C(=O)NCCc3ccccc3Cl)nn2c(-c2cc(F)c3c(c2C)CCCO3)c1[C@H](OC(C)(C)C)C(=O)O [Example 111, (2S)-2-(tert-butoxy)-2-(2-((2-chlorophenethyl)carbamoyl)-7-(8-fluoro-5-methylchroman-6-yl)-5-methylpyrazolo[1,5-a]pyrimidin-6-yl)acetic acid] | < 0.1 µM | 
11 | Cc1nc2cc(C(=O)NCCc3ccc(Cl)cc3)nn2c(-c2cc(F)c3c(c2C)CCCO3)c1[C@H](OC(C)(C)C)C(=O)O [Example 112, (2S)-2-(tert-butoxy)-2-(2-((4-chlorophenethyl)carbamoyl)-7-(8-fluoro-5-methylchroman-6-yl)-5-methylpyrazolo[1,5-a]pyrimidin-6-yl)acetic acid] | < 0.1 µM | 
12 | Cc1nc2cc(C(=O)N(Cc3ccccc3)C(C)C)nn2c(-c2cc(F)c3c(c2C)CCCO3)c1[C@H](OC(C)(C)C)C(=O)O [Example 113, (2S)-2-(2-(benzyl(isopropyl)carbamoyl)-7-(8-fluoro-5-methylchroman-6-yl)-5-methylpyrazolo[1,5-a]pyrimidin-6-yl)-2-(tert-butoxy)acetic acid] | < 0.1 µM | 
13 | CCCCNC(=O)c1cc2nc(C)c([C@H](OC(C)(C)C)C(=O)O)c(-c3cc(F)c4c(c3C)CCCO4)n2n1 [Example 114, (2S)-2-(tert-butoxy)-2-(2-(butylcarbamoyl)-7-(8-fluoro-5-methylchroman-6-yl)-5-methylpyrazolo[1,5-a]pyrimidin-6-yl)acetic acid] | < 0.1 µM | 
14 | Cc1nc2cc(C(=O)N(C)Cc3ccc(Cl)c(Cl)c3)nn2c(-c2cc(F)c3c(c2C)CCCO3)c1[C@H](OC(C)(C)C)C(=O)O [Example 115, (2S)-2-(tert-butoxy)-2-(2-((3,4-dichlorobenzyl)(methyl)carbamoyl)-7-(8-fluoro-5-methylchroman-6-yl)-5-methylpyrazolo[1,5-a]pyrimidin-6-yl)acetic acid] | < 0.1 µM | 
15 | Cc1nc2cc(C(=O)N3CCN(c4ccc(Cl)cc4)CC3)nn2c(-c2cc(F)c3c(c2C)CCCO3)c1[C@H](OC(C)(C)C)C(=O)O [Example 116, (2S)-2-(tert-butoxy)-2-(2-(4-(4-chlorophenyl)piperazine-1-carbonyl)-7-(8-fluoro-5-methylchroman-6-yl)-5-methylpyrazolo[1,5-a]pyrimidin-6-yl)acetic acid] | < 0.1 µM | 
16 | Cc1nc2cc(C(=O)NCc3cccc(Cl)c3Cl)nn2c(-c2cc(F)c3c(c2C)CCCO3)c1[C@H](OC(C)(C)C)C(=O)O [Example 117, (2S)-2-(tert-butoxy)-2-(2-((2,3-dichlorobenzyl)carbamoyl)-7-(8-fluoro-5-methylchroman-6-yl)-5-methylpyrazolo[1,5-a]pyrimidin-6-yl)acetic acid] | < 0.1 µM | 
17 | Cc1nc2cc(C(=O)NCc3cc(Cl)cc(Cl)c3)nn2c(-c2cc(F)c3c(c2C)CCCO3)c1[C@H](OC(C)(C)C)C(=O)O [Example 118, (2S)-2-(tert-butoxy)-2-(2-((3,5-dichlorobenzyl)carbamoyl)-7-(8-fluoro-5-methylchroman-6-yl)-5-methylpyrazolo[1,5-a]pyrimidin-6-yl)acetic acid] | < 0.1 µM | 
18 | Cc1nc2cc(C(=O)NCCc3nc4ccccc4s3)nn2c(-c2cc(F)c3c(c2C)CCCO3)c1[C@H](OC(C)(C)C)C(=O)O [Example 119, (2S)-2-(2-((2-(benzo[d]thiazol-2-yl)ethyl)carbamoyl)-7-(8-fluoro-5-methylchroman-6-yl)-5-methylpyrazolo[1,5-a]pyrimidin-6-yl)-2-(tert-butoxy)acetic acid] | < 0.1 µM | 
19 | Cc1nc2cc(C(=O)NCc3ccc(Cl)c(C(F)(F)F)c3)nn2c(-c2cc(F)c3c(c2C)CCCO3)c1[C@H](OC(C)(C)C)C(=O)O [Example 120, (2S)-2-(tert-butoxy)-2-(2-((4-chloro-3-(trifluoromethyl)benzyl)carbamoyl)-7-(8-fluoro-5-methylchroman-6-yl)-5-methylpyrazolo[1,5-a]pyrimidin-6-yl)acetic acid] | < 0.1 µM | 
20 | Cc1nc2cc(C(=O)NCc3ccc(C#N)cc3)nn2c(-c2cc(F)c3c(c2C)CCCO3)c1[C@H](OC(C)(C)C)C(=O)O [Example 121, (2S)-2-(tert-butoxy)-2-(2-((4-cyanobenzyl)carbamoyl)-7-(8-fluoro-5-methylchroman-6-yl)-5-methylpyrazolo[1,5-a]pyrimidin-6-yl)acetic acid] | 0.1 to 1 µM | 
21 | Cc1nc2cc(C(=O)NCc3nc4ccccc4s3)nn2c(-c2cc(F)c3c(c2C)CCCO3)c1[C@H](OC(C)(C)C)C(=O)O [Example 122, (2S)-2-(2-((benzo[d]thiazol-2-ylmethyl)carbamoyl)-7-(8-fluoro-5-methylchroman-6-yl)-5-methylpyrazolo[1,5-a]pyrimidin-6-yl)-2-(tert-butoxy)acetic acid] | < 0.1 µM | 
22 | Cc1nc2cc(C(=O)Nc3ccccc3)nn2c(-c2cc(F)c3c(c2C)CCCO3)c1[C@H](OC(C)(C)C)C(=O)O [Example 123, (2S)-2-(tert-butoxy)-2-(7-(8-fluoro-5-methylchroman-6-yl)-5-methyl-2-(phenylcarbamoyl)pyrazolo[1,5-a]pyrimidin-6-yl)acetic acid] | < 0.1 µM | 
23 | CCCNC(=O)c1cc2nc(C)c([C@H](OC(C)(C)C)C(=O)O)c(-c3cc(F)c4c(c3C)CCCO4)n2n1 [Example 124, (2S)-2-(tert-butoxy)-2-(7-(8-fluoro-5-methylchroman-6-yl)-5-methyl-2-(propylcarbamoyl)pyrazolo[1,5-a]pyrimidin-6-yl)acetic acid] | 0.1 to 1 µM | 
24 | Cc1nc2cc(C(=O)NCc3ccccc3C(F)(F)F)nn2c(-c2cc(F)c3c(c2C)CCCO3)c1[C@H](OC(C)(C)C)C(=O)O [Example 125, (2S)-2-(tert-butoxy)-2-(7-(8-fluoro-5-methylchroman-6-yl)-5-methyl-2-((2-(trifluoromethyl)benzyl)carbamoyl)pyrazolo[1,5-a]pyrimidin-6-yl)acetic acid] | < 0.1 µM | 
25 | Cc1nc2cc(C(=O)NCC34C[C@H]5C[C@@H](C3)C[C@@H](C4)C5)nn2c(-c2cc(F)c3c(c2C)CCCO3)c1[C@H](OC(C)(C)C)C(=O)O [Example 126, (2S)-2-(2-(((3S,5S,7S)-adamantan-1-ylmethyl)carbamoyl)-7-(8-fluoro-5-methylchroman-6-yl)-5-methylpyrazolo[1,5-a]pyrimidin-6-yl)-2-(tert-butoxy)acetic acid] | < 0.1 µM | 
26 | Cc1nc2cc(C(=O)NCC(C)(C)C)nn2c(-c2cc(F)c3c(c2C)CCCO3)c1[C@H](OC(C)(C)C)C(=O)O [Example 127, (2S)-2-(tert-butoxy)-2-(7-(8-fluoro-5-methylchroman-6-yl)-5-methyl-2-(neopentylcarbamoyl)pyrazolo[1,5-a]pyrimidin-6-yl)acetic acid] | 0.1 to 1 µM | 
27 | Cc1nc2cc(C(=O)NCCC3CCCCC3)nn2c(-c2cc(F)c3c(c2C)CCCO3)c1[C@H](OC(C)(C)C)C(=O)O [Example 128, (2S)-2-(tert-butoxy)-2-(2-((2-cyclohexylethyl)carbamoyl)-7-(8-fluoro-5-methylchroman-6-yl)-5-methylpyrazolo[1,5-a]pyrimidin-6-yl)acetic acid] | < 0.1 µM | 
